Source: patent US20170190671A1, “BIS(ARYL)CATECHOL DERIVATIVES AS HERBICIDES” (E I DU PONT DE NEMOURS AND COMPANY, priority 2014, published 2017)

Tests used:
Type in all cases: in vivo
[1] = test system: pigweed (Amaranthus retroflexus); assay: Test A preemergence; details: Amaranthus retroflexus, pre-emergence, 240 h; for pest or weed control at 125 g/ha: 125 g ai/ha
Outline: (§1)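 Visual 0–100 rating (100 = complete control) taken about 10 d post-treatment relative to untreated checks. Preemergence: directed soil spray on sown loam/sand pots. Postemergence: seedlings 2–10 cm, 1–2 leaf. Non-phytotoxic solvent formulation with surfactant.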

[2] = test system: barnyardgrass (Echinochloa crus-galli); assay: Test A preemergence; details: Echinochloa crus-galli, pre-emergence, 240 h; for pest or weed control at 125 g/ha: 125 g ai/ha
Outline: as §1

kochia (Kochia scoparia) [3] = assay: Test A preemergence; details: Bassia scoparia, pre-emergence, 240 h
Outline: as §1

[4] = test system: giant foxtail (Setaria faberii); assay: Test A preemergence; details: Setaria faberi, pre-emergence, 240 h; for pest or weed control at 125 g/ha: 125 g ai/ha
Outline: as §1

[5] = test system: ragweed (common ragweed, Ambrosia elatior); assay: Test A preemergence; details: Ambrosia artemisiifolia, pre-emergence, 240 h
Outline: as §1

[6] = test system: Italian ryegrass (Lolium multiflorum); assay: Test A preemergence; details: Lolium multiflorum, pre-emergence, 240 h
Outline: as §1

[7] = test system: ducksalad (Heteranthera limosa); assay: Test B flooded paddy; details: Heteranthera limosa, 336 h; 250 g ai/ha, Flood, 13 to 15 days, scale 0 (no effect) to 100 (complete control); read-out: Plant response rating, Ducksalad
Outline: (§2)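 Pots were flooded to 3 cm above the soil surface at treatment, compound applied directly to the paddy water, and that depth held throughout. Plants were kept in a greenhouse for 13 to 15 days, then visually rated against untreated controls.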

[8] = test system: sedge, umbrella (small-flower umbrella sedge, Cyperus difformis); assay: Test B flooded paddy; details: Cyperus difformis, 336 h; 250 g ai/ha, Flood, 13 to 15 days, scale 0 (no effect) to 100 (complete control); read-out: Plant response rating, Sedge, Umbrella
Outline: as §2

[9] = test system: barnyardgrass (Echinochloa crus-galli); assay: Test B flooded paddy; details: Echinochloa crus-galli, 336 h; 250 g ai/ha, Flood, 13 to 15 days, scale 0 (no effect) to 100 (complete control); read-out: Plant response rating, Barnyardgrass
Outline: as §2

rice (Oryza sativa) = assay: Test B flooded paddy; details: Oryza sativa, 336 h; 250 g ai/ha, Flood, 13 to 15 days, scale 0 (no effect) to 100 (complete control); read-out: Plant response rating, Rice
Outline: as §2

[10] = test system: pigweed (Amaranthus retroflexus); assay: Test A postemergence; details: Amaranthus retroflexus, post-emergence, 240 h, 0 to 100 scale, read-out: Plant response rating, Pigweed; for pest or weed control at 125 g/ha: 125 g ai/ha
Outline: as §1

[11] = test system: galium (catchweed bedstraw, Galium aparine); assay: Test A postemergence; details: Galium, post-emergence, 240 h, 0 to 100 scale, read-out: Plant response rating, Galium
Outline: as §1

[12] = test system: barnyardgrass (Echinochloa crus-galli); assay: Test A postemergence; details: Echinochloa crus-galli, post-emergence, 240 h, 0 to 100 scale, read-out: Plant response rating, Barnyardgrass; for pest or weed control at 125 g/ha: 125 g ai/ha
Outline: as §1

kochia (Kochia scoparia) [13] = assay: Test A postemergence; details: Bassia scoparia, post-emergence, 240 h, 0 to 100 scale, read-out: Plant response rating, Kochia
Outline: as §1

[14] = test system: wheat (Triticum aestivum); assay: Test A postemergence; details: Triticum aestivum, post-emergence, 240 h, 0 to 100 scale, read-out: Plant response rating, Wheat; for plant injury at 125 g/ha: 125 g ai/ha
Outline: as §1

corn (Zea mays) = assay: Test A postemergence; details: Zea mays, post-emergence, 240 h, 0 to 100 scale; for Corn plant response rating (crop injury, 0 = no effect, 100 = complete kill) at 125 g/ha: 125 g ai/ha
Outline: as §1

[15] = test system: blackgrass (Alopecurus myosuroides); assay: Test A postemergence; details: Alopecurus myosuroides, post-emergence, 240 h, 0 to 100 scale, read-out: Plant response rating, Blackgrass
Outline: as §1

[16] = test system: giant foxtail (Setaria faberii); assay: Test A postemergence; details: Setaria faberi, post-emergence, 240 h, 0 to 100 scale, read-out: Plant response rating, Foxtail, Giant; for pest or weed control at 125 g/ha: 125 g ai/ha
Outline: as §1

[17] = test system: ragweed (common ragweed, Ambrosia elatior); assay: Test A postemergence; details: Ambrosia artemisiifolia, post-emergence, 240 h, 0 to 100 scale, read-out: Plant response rating, Ragweed
Outline: as §1

[18] = test system: Italian ryegrass (Lolium multiflorum); assay: Test A postemergence; details: Lolium multiflorum, post-emergence, 240 h, 0 to 100 scale, read-out: Plant response rating, Ryegrass, Italian
Outline: as §1

[19] = 0 to 100 scale, read-out: Plant response rating, Barnyardgrass

## N#Cc1cccc(Oc2ncc(Br)cn2)c1Oc1ncc(Cl)cn1 [Compound 5, 3-[(5-bromo-2-pyrimidinyl)oxy]-2-[(5-chloro-2-pyrimidinyl)oxy]benzonitrile]
[1]; 31 g ai/ha, 0 to 100 scale (0 no effect, 100 complete control), read-out: Pigweed plant response rating
  pest or weed control at 31 g/ha: 100%
[1]; 0 to 100 scale, read-out: Plant response rating, Pigweed
  pest or weed control at 125 g/ha: 100%
[2]; 31 g ai/ha, 0 to 100 scale (0 no effect, 100 complete control), read-out: Barnyardgrass plant response rating
  pest or weed control at 31 g/ha: 20%
[2]; [19]
  pest or weed control at 125 g/ha: 80%
Kochia (Kochia scoparia) [3]; 31 g ai/ha, 0 to 100 scale (0 no effect, 100 complete control), read-out: Kochia plant response rating
  pest or weed control at 31 g/ha: 100%
Kochia (Kochia scoparia) [3]; 125 g ai/ha, 0 to 100 scale, read-out: Plant response rating, Kochia
  pest or weed control at 125 g/ha: 100%
[4]; 31 g ai/ha, 0 to 100 scale (0 no effect, 100 complete control), read-out: Foxtail, Giant plant response rating
  pest or weed control at 31 g/ha: 90%
[4]; 0 to 100 scale, read-out: Plant response rating, Foxtail, Giant
  pest or weed control at 125 g/ha: 100%
[5]; 31 g ai/ha, 0 to 100 scale (0 no effect, 100 complete control), read-out: Ragweed plant response rating
  pest or weed control at 31 g/ha: 0%
[5]; 125 g ai/ha, 0 to 100 scale, read-out: Plant response rating, Ragweed
  pest or weed control at 125 g/ha: 20%
[6]; 31 g ai/ha, 0 to 100 scale (0 no effect, 100 complete control), read-out: Ryegrass, Italian plant response rating
  pest or weed control at 31 g/ha: 0%
[6]; 125 g ai/ha, 0 to 100 scale, read-out: Plant response rating, Ryegrass, Italian
  pest or weed control at 125 g/ha: 60%
[7]
  pest or weed control at 250 g/ha: 100%
[8]
  pest or weed control at 250 g/ha: 75%
[9]
  pest or weed control at 250 g/ha: 35%
Rice (Oryza sativa)
  plant injury at 250 g/ha: 0%
[10]; 31 g ai/ha
  pest or weed control at 31 g/ha: 70%
[10]
  pest or weed control at 125 g/ha: 100%
[11]; 31 g ai/ha
  pest or weed control at 31 g/ha: 50%
[11]; 125 g ai/ha
  pest or weed control at 125 g/ha: 90%
[12]; 31 g ai/ha
  pest or weed control at 31 g/ha: 20%
[12]
  pest or weed control at 125 g/ha: 90%
Kochia (Kochia scoparia) [13]; 31 g ai/ha
  pest or weed control at 31 g/ha: 70%
Kochia (Kochia scoparia) [13]; 125 g ai/ha
  pest or weed control at 125 g/ha: 100%
[14]; 31 g ai/ha
  plant injury at 31 g/ha: 20%
[14]
  plant injury at 125 g/ha: 40%
Corn (Zea mays); 31 g ai/ha
  Corn plant response rating (crop injury, 0 = no effect, 100 = complete kill) at 31 g/ha: 20%
Corn (Zea mays)
  Corn plant response rating (crop injury, 0 = no effect, 100 = complete kill) at 125 g/ha: 80%
[15]; 31 g ai/ha
  pest or weed control at 31 g/ha: 40%
[15]; 125 g ai/ha
  pest or weed control at 125 g/ha: 90%
[16]; 31 g ai/ha
  pest or weed control at 31 g/ha: 10%
[16]
  pest or weed control at 125 g/ha: 90%
[17]; 31 g ai/ha
  pest or weed control at 31 g/ha: 20%
[17]; 125 g ai/ha
  pest or weed control at 125 g/ha: 40%
[18]; 31 g ai/ha
  pest or weed control at 31 g/ha: 20%
[18]; 125 g ai/ha
  pest or weed control at 125 g/ha: 50%

## Clc1cnc(Oc2cccc(Br)c2Oc2ncc(Cl)cn2)nc1 [Compound 19, 2,2′-[[3-bromo-1,2-phenylene]bis(oxy)]bis[5-chloropyrimidine]]
[1]; 0 to 100 scale (0 no effect, 100 complete control), read-out: Pigweed plant response rating
  pest or weed control at 125 g/ha: 100%
[1]; 500 g ai/ha, 0 to 100 scale, read-out: Plant response rating, Pigweed
  pest or weed control at 500 g/ha: 100%
[2]; [19]
  pest or weed control at 125 g/ha: 80%
[2]; 500 g ai/ha, 0 to 100 scale, read-out: Plant response rating, Barnyardgrass
  pest or weed control at 500 g/ha: 90%
[4]; 0 to 100 scale (0 no effect, 100 complete control), read-out: Foxtail, Giant plant response rating
  pest or weed control at 125 g/ha: 100%
[4]; 500 g ai/ha, 0 to 100 scale, read-out: Plant response rating, Foxtail, Giant
  pest or weed control at 500 g/ha: 100%
[7]
  pest or weed control at 250 g/ha: 95%
[8]
  pest or weed control at 250 g/ha: 85%
[9]
  pest or weed control at 250 g/ha: 15%
Rice (Oryza sativa)
  plant injury at 250 g/ha: 25%
[10]
  pest or weed control at 125 g/ha: 100%
[10]; 500 g ai/ha
  pest or weed control at 500 g/ha: 100%
[12]
  pest or weed control at 125 g/ha: 70%
[12]; 500 g ai/ha
  pest or weed control at 500 g/ha: 100%
[14]
  plant injury at 125 g/ha: 50%
[14]; 500 g ai/ha
  plant injury at 500 g/ha: 60%
Corn (Zea mays)
  Corn plant response rating (crop injury, 0 = no effect, 100 = complete kill) at 125 g/ha: 50%
Corn (Zea mays); 500 g ai/ha
  Corn plant response rating (crop injury, 0 = no effect, 100 = complete kill) at 500 g/ha: 60%
[16]
  pest or weed control at 125 g/ha: 80%
[16]; 500 g ai/ha
  pest or weed control at 500 g/ha: 90%
